From US20130237582A1, “PHARMACEUTICAL COMBINATION OF PACLITAXEL AND A CDK INHIBITOR” (Piramal Enterprises Limited, priority 2010, published 2013) come the findings set out here.

One experiment deals with T1, PARP (Homo sapiens, UniProt P09874).
T1 construct: endogenous in cells; host or cells: MDA-MB-231; MDA-MB-468
The experiment can be described thus: PARP enzyme activity measured by PAR polymers (Western blot), MDA-MB-231. It counts as cell-based. The conditions noted are these: 1.5 μM and 5 μM, 24 h. The method, then: To study PARP enzyme activity, PAR polymer formation was measured. MDA-MB-231 and MDA-MB-468 cells were seeded in RPMI 1460 medium with 10% FCS in […] tissue culture flask and incubated for 24 h. These cells were treated at 1.5 μM and 5 μM of Compound A for 24 h. The cells were harvested (trypsinised) and lysed using lysis buffer. Western blotting (Molecular Cancer Therapeutics, 2007, 6, 918-925) was done with specific antibody to PAR.
Correlation of PARP activity and cell cycle proteins cyclin D1, total Rb and pRb 780 were studied in two TNBC cell lines viz. MDA-MB-468 and MDA-MB-231. MDA-MB-231 and MDA-MB-468 cells were seeded in RPMI 1460 medium with 10% FCS in […] tissue culture flask and incubated for 24 h. These cells were treated at 1.5 μM and 5 μM Compound A for 24 h. The cells were harvested (trypsinised) and lysed using lysis buffer. Western blotting was carried out (Molecular Cancer […], 2007, 6, 918-925) using specific antibody to PAR, PARP, cyclin D1, CDK4 and pRb Ser 780.
(In general: In western blotting, separated proteins are transferred to a membrane and probed.)

Another experiment relates to BT-549. Nature of the experiment: Cytotoxicity assay using propidium iodide (PI). It counts as cell-based. The conditions noted are these: Homo sapiens, 48 h treatment. The method, then:
(§1) The propidium iodide fluorescence assay (PI) was carried out according to the procedure mentioned in Anticancer Drugs, 1995, 6, 522-32. The assay was developed to characterize the in vitro growth of human tumor cell lines as well as to test the cytotoxic activity of the compounds. Propidium iodide (PI) was used as a dye, which penetrates only damaged cellular membranes. Intercalation complexes are formed by PI with double-stranded DNA, which effect an amplification of the fluorescence. After freezing the cells at −20° C. for 24 h, PI had access to total DNA leading to total cell population counts. Background readings were obtained from cell-free wells containing media and propidium iodide. The human breast cancer cell lines (i.e. […] Control wells were treated with vehicle (DMSO). At the end of the incubation periods, the plates were assayed using PI cytotoxicity assay protocol. Percent cytoxicity was calculated at various drug concentrations and from the graph plotted the IC50 values were determined.

The test system of another experiment is ZR-75-1. Nature of the experiment: Cytotoxicity assay using propidium iodide (PI). It counts as cell-based. The settings on record: Homo sapiens. How it is done:
as §1

For another experiment, the system named is MDA-MB-435-S. Nature of the experiment: Cytotoxicity assay using propidium iodide (PI). It counts as cell-based. The settings on record: Homo sapiens. How it is done: as §1
The next experiment has as its system T47-D. Nature of the experiment: Cytotoxicity assay using propidium iodide (PI). It counts as cell-based. The settings on record: Homo sapiens, T47D. How it is done: as §1
The next experiment relates to HBL-100. Nature of the experiment: Cytotoxicity assay using propidium iodide (PI). The settings on record: Homo sapiens. Format: cell-based. The method, then:
as §1

The next experiment relates to MDA-MB-361. The experiment can be described thus: Cytotoxicity assay using propidium iodide (PI). Format: cell-based. The conditions noted are these: Homo sapiens. The method, then: as §1
For a further experiment, the system named is VEGF. Nature of the experiment: VEGF reporter gene based assay (M-9 cells). It counts as cell-based. The settings on record: Homo sapiens, hypoxia, 20-24 h, read-out: IC50 for VEGF inhibition under hypoxia. The method, then: A cell line M-9 is MDA-MB-231 which is stably co-transfected with the VEGF-Luc construct (VEGF promoter in pGL2-basic) and a plasmid containing the Geneticin (G418) resistance gene which forms VEGF promoter reporter gene. The expression of the reporter gene in the clone cells, as measured by luciferase activity, is stable.
The effect of Compound A on VEGF inhibition was evaluated using the VEGF reporter gene based assay.
Lysis Assay Buffer (1×) • Tris-Phosphate (pH 7.8)-125 mM, DTT-10 mM, EDTA-10 mM, Glycerol-50% and Triton X-100-5%.
Luciferase Assay Reagent (LAR) • Luciferase Assay Buffer-8 mL, 530 μM ATP-530 μL, 270 μM CoA-1 mL and 170 μM Luciferin-1 mL.
Luciferase Assay Buffer (LAB) (1×) • Tricin (pH 7.8)-20 mM, Magnesia Alba-1.07 mM, MgSO4-2.67 mM, EDTA-0.1 mM and DTT-33.3 mM. ATP Stock made in LAB=5.85 mg/mL CoA Stock made in LAB=2.1 mg/mL Luciferin Stock made in LAB=1.5 mg/mL
1. M-9 cells were sub-cultured and maintained in RPMI-1640 Medium with supplement of 10% FBS, and 4 μL/ml G418 (Stock 100 mg/mL) in a humidified incubator at 37° C. and 5% CO2. 2. Cells were seeded at density of 3×10^4 cells/well in 180 μL volume in tissue culture grade 96 well white plates as well as transparent plates and allowed to adhere for 16-20 h in humidified CO2 incubator (5% CO2) at 37° C. A total of two sets of plates were made, as the incubation conditions are different. 3. Compound A, Sutent® and BSI-201 were diluted in medium serially so that final desired concentrations are achieved in the respective wells. (not more than 0.5% concentration of DMSO in the wells). 4. INCUBATION CONDITIONS: One set of plates are incubated under ambient atmospheric condition with 5% CO2, referred hereafter as NORMOXIC/OXIC PLATE. […] To all the wells, 100 μL Luciferase Assay Reagent (LAR) are added, plates are immediately read for Luminescence on TOPCOUNT™ (Packard, USA). The percentage inhibitions and Inhibitory Concentration (IC50) or Effective Concentration (EC50) are calculated in comparison with Control (untreated) values. […]

A further experiment relates to MCF-7. Nature of the experiment: Multicellular tumor spheroid (MCTS, 3D) formation. The conditions noted are these: MCF-7 MCTS. Format: cell-based, human. The method, then: The assay was carried out according to the method disclosed in Methods in Molecular Medicine, 2007, 140, 141-151.
The multicellular tumor spheroid (MCTS) model is one of the best-described 3D in vitro tumor model systems, which depicts many of the characteristics of tumor tissue and allows reproducible experiments, offering an excellent in vitro screening system. MCTS were propagated using the hanging drop method. Briefly, the cell monolayer was detached using trypsin-EDTA. Cell count was adjusted and 20 μL hanging droplets containing 1,000 cells/drop, were made in bacterial grade petridishes. These hanging drops were incubated for 24 h at 37° C. in a humidified atmosphere of 5% CO2. The MCTS thus generated were cultured in the presence or absence of varying concentrations (0.3 μM to 30 μM) of Compound A for 72 h.

T1 sequence (P09874 2-1014 limits assumed): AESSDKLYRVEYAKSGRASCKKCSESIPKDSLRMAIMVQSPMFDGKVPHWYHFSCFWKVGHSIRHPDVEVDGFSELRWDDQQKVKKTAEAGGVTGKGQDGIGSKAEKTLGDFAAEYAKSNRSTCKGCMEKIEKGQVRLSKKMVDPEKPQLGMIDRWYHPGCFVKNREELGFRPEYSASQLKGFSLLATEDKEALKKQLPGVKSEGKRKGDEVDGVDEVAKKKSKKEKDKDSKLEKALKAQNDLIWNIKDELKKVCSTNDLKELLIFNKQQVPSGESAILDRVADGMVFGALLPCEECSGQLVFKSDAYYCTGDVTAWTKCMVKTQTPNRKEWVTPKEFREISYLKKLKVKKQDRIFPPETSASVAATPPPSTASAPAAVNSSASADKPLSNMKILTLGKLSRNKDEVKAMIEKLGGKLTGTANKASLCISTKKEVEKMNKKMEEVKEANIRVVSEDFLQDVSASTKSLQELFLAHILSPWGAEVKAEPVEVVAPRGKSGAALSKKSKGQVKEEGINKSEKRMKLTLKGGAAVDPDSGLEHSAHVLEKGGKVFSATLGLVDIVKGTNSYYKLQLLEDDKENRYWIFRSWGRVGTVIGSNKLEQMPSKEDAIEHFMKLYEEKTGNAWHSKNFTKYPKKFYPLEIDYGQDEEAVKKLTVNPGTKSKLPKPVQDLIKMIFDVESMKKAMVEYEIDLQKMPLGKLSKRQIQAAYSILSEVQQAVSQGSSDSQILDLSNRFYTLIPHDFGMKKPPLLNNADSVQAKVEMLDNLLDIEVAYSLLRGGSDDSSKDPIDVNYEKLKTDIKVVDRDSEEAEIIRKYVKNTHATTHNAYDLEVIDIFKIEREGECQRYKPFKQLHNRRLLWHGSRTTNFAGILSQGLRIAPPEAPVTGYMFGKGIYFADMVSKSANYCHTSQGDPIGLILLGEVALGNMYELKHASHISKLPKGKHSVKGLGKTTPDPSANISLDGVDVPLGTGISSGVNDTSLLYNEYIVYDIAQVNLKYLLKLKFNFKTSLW

By IC50 is commonly meant the concentration that gives 50% inhibition. Regarding `CN1CC[C@@H](c2c(O)cc(O)c3c(=O)cc(-c4ccccc4Cl)oc23)[C@@H]1CO.Cl` [Compound A, (+)-trans-2-(2-Chloro-phenyl)-5,7-dihydroxy-8-(2-hydroxymethyl-1-methyl-pyrrolidin-3-yl)-chromen-4-one hydrochloride], the “PARP enzyme activity (PAR polymer formation)” value at PARP is given as “inhibits PARP enzyme activity”. Moreover, the IC50 with BT-549 was 800 nM; in the experiment on ZR-75-1 it was 900 nM; in the experiment with MDA-MB-435-S it was 300 nM; in the experiment with T47-D, 500 nM; in the experiment on HBL-100, 510 nM; with MDA-MB-361 it was 750 nM. Also, the IC50 in the experiment on VEGF amounted to 310 nM. Besides, in the experiment on MCF-7 (0.3 μM to 30 μM, 72 h), the “concentration from which spheroid formation was arrested” value is no less than 3 µM. Besides, the “size of MCTS formed” value with MCF-7 (1 μM) was “smaller as compared to control”.
